Experimental data: the supplement of paper PMC11451515

Test system: SEM cells
Test: cell viability relative to DMSO control; higher = less cytotoxic
Conditions: 48 h
Method in brief: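 NOMO1 or SEM (500 cells/well) or P12-Ichikawa (1000 cells/well) leukemia cells were adapted for at least four passages in each medium. They were seeded in 1536-well plates (5 μl) and pin-dosed with library compounds in DMSO over an 11-point threefold series, 47 μM to 0.79 nM. CellTiter-Glo One luminescence was read after 48 h at 37°C. Viability is the per-plate percentage relative to DMSO wells, with cell-free wells as background.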

[1] = HPLM + 10% dialyzed FBS, 0.000781 µM
[2] = HPLM + 10% dialyzed FBS, 0.00234 µM
[3] = HPLM + 10% dialyzed FBS, 0.00702 µM
[4] = HPLM + 10% dialyzed FBS, 0.0211 µM
[5] = HPLM + 10% dialyzed FBS, 0.0632 µM
[6] = HPLM + 10% dialyzed FBS, 0.19 µM
[7] = HPLM + 10% dialyzed FBS, 0.569 µM
[8] = HPLM + 10% dialyzed FBS, 1.71 µM
[9] = HPLM + 10% dialyzed FBS, 5.12 µM
[10] = HPLM + 10% dialyzed FBS, 15.4 µM
[11] = HPLM + 10% dialyzed FBS, 46.1 µM
[12] = RPMI 5 mM glucose + 10% FBS, 0.000781 µM
[13] = RPMI 5 mM glucose + 10% FBS, 0.00234 µM
[14] = RPMI 5 mM glucose + 10% FBS, 0.00702 µM
[15] = RPMI 5 mM glucose + 10% FBS, 0.0211 µM
[16] = RPMI 5 mM glucose + 10% FBS, 0.0632 µM
[17] = RPMI 5 mM glucose + 10% FBS, 0.19 µM
[18] = RPMI 5 mM glucose + 10% FBS, 0.569 µM
[19] = RPMI 5 mM glucose + 10% FBS, 1.71 µM
[20] = RPMI 5 mM glucose + 10% FBS, 5.12 µM
[21] = RPMI 5 mM glucose + 10% FBS, 15.4 µM
[22] = RPMI 5 mM glucose + 10% FBS, 46.1 µM
[23] = RPMI 5 mM glucose + 10% dialyzed FBS, 0.000781 µM
[24] = RPMI 5 mM glucose + 10% dialyzed FBS, 0.00234 µM
[25] = RPMI 5 mM glucose + 10% dialyzed FBS, 0.00702 µM
[26] = RPMI 5 mM glucose + 10% dialyzed FBS, 0.0211 µM
[27] = RPMI 5 mM glucose + 10% dialyzed FBS, 0.0632 µM
[28] = RPMI 5 mM glucose + 10% dialyzed FBS, 0.19 µM
[29] = RPMI 5 mM glucose + 10% dialyzed FBS, 0.569 µM
[30] = RPMI 5 mM glucose + 10% dialyzed FBS, 1.71 µM
[31] = RPMI 5 mM glucose + 10% dialyzed FBS, 5.12 µM
[32] = RPMI 5 mM glucose + 10% dialyzed FBS, 15.4 µM
[33] = RPMI 5 mM glucose + 10% dialyzed FBS, 46.1 µM

Structure (SMILES)	cell viability [1] [%]	cell viability [2] [%]	cell viability [3] [%]	cell viability [4] [%]	cell viability [5] [%]	cell viability [6] [%]	cell viability [7] [%]	cell viability [8] [%]	cell viability [9] [%]	cell viability [10] [%]	cell viability [11] [%]	cell viability [12] [%]	cell viability [13] [%]	cell viability [14] [%]	cell viability [15] [%]	cell viability [16] [%]	cell viability [17] [%]	cell viability [18] [%]	cell viability [19] [%]	cell viability [20] [%]	cell viability [21] [%]	cell viability [22] [%]	cell viability [23] [%]	cell viability [24] [%]	cell viability [25] [%]	cell viability [26] [%]	cell viability [27] [%]	cell viability [28] [%]	cell viability [29] [%]	cell viability [30] [%]	cell viability [31] [%]	cell viability [32] [%]	cell viability [33] [%]
NC(=O)c1cccc(-c2cc(Nc3ccc(OC(F)(F)F)cc3)ncn2)c1	82.4	92.7	95.5	91.9	87.2	111	101	106	87.8	82	69.3	105	116	106	111	104	117	112	111	113	101	69.1	80	91.6	96.5	91.8	95	98.2	96.1	104	84.8	68.9	54.1
C[C@]12CC[C@H]3[C@@H](CC(=C)\C4=C\C(=O)\C=C/[C@]34C)[C@@H]1CCC2=O	89.7	92.6	96.3	105	107	92.8	94.4	90.7	97.8	34.9	64.8	111	90.8	89.2	96.9	98	95.3	104	106	114	36.5	54.6	98.1	86.9	96.4	110	103	101	115	111	115	33.2	59.9
OC1=CC=C(C=C1)C/2=C/C3=C(OC2)C=C(O)C=C3	107	111	112	109	114	120	101	84.9	21.2	2.3	1.5	108	117	122	115	109	106	80.8	93.1	23.7	1.46	1.13	111	107	125	90.8	99.1	108	85.5	89.1	25	2.21	1.74
Cc1ccc(Nc2cc(-c3cccc(N4C(=O)c5ccccc5C4=O)c3)ncn2)cc1N[S+](C)(=O)[O-]	102	97.9	131	117	126	123	117	137	123	123	76.2	123	95.8	137	138	128	132	142	166	133	132	105	122	117	119	119	135	115	127	154	136	142	77.7
